Where two headings read alike, the source gives them in different places.
How the values were obtained:
[1] = test system: Spraque-Dawley rats; assay: Prostaglandin E2-induced thermal hypersensitivity, warm-water tail withdrawal, single compound studies; assay type: in vivo, rat; conditions: given 30 min before PGE2
Procedure: Ketamine and dizocilpine are high affinity use-dependent NMDA receptor channel blockers, while memantine is a moderate affinity use-dependent NMDA receptor channel blocker. CGS-19755 is a competitive NMDA antagonist and ifenprodil is a […] polyamine antagonist. Test Method 1: Prostaglandin E2-Induced Thermal Hypersensitivity.
(§1) The terminal 10 cm of the tail was placed into a thermos bottle containing water warmed to 38, 42, 46, 50, 54, or 58° C. The latency in seconds for the animal to remove the tail from the water was used as a measure of nociception.
(§2) Following the assessment of baseline thermal sensitivity, thermal hypersensitivity was produced by a 50 μL injection of 0.1 mg prostaglandin E2 (PGE2) into the terminal 1 cm of the tail. Temperature-effect curves were generated before (baseline) and after (15, 30, 60, 90 and 120 min) the PGE2 injection.
Single compound studies. The ability of drugs to reverse PGE2-induced thermal hypersensitivity was assessed using a single dose time-course procedure. Under this procedure, a single dose of the compound to be tested was administered intraperitoneally (IP), orally (PO) or intranasally (IN) 30 min before the injection of PGE2. […] sensitivity was assessed 30 min after PGE2 injection.
(§3) Test Method 1 Data Analysis—The temperature that produced a half-maximal increase in the tail-withdrawal latency (i.e., T10) was calculated from each temperature-effect curve. The T10 was determined by interpolation from a line drawn between the point above and the point below 10 sec on the temperature-effect curve. For these studies, thermal hypersensitivity was defined as a leftward shift in the temperature-effect curve and a decrease in the T10 value. Reversal of thermal hypersensitivity was defined as a return to baseline of the temperature-effect curve and the T10 value and was calculated according to the following equation:
[formula] in which T10^drug+PGE2 is the T10 after a drug in combination with PGE2, T10^PGE2 is the T10 after PGE2 alone, and T10^baseline is the T10 under control conditions. A % MPE value of 100 indicates a complete return to the baseline thermal sensitivity observed without the PGE2 injection. […] Test Method 2: Chronic Constriction Injury

[2] = test system: Spraque-Dawley rats; assay: Warm-water tail withdrawal combination studies with morphine; assay type: in vivo, rat; conditions: 10.0 mg/kg IP, 30 min before testing
Procedure: as §1
Combination compound studies. […] Compounds were administered IP at the same time 30 min before testing.
as §3, with “equation: […]” for “equation:”

[3] = test system: Spraque-Dawley rats; assay type: in vivo, rat
Procedure: as §1, §2
Compounds were administered IP at the same time as PGE2, which was administered 30 min before testing.
as §3, with “equation: […]” for “equation:”

[4] = test system: Spraque-Dawley rats; assay: Chronic Constriction Injury-induced tactile hypersensitivity (von Frey); assay type: in vivo, rat; conditions: IP, one week after CCl surgery
From the text: Rats were anesthetized with 3.5% halothane in O2 at 1 L/min and maintained with 1.5% halothane in O2 during surgery. A modified chronic sciatic nerve constriction injury (Mosconi & Kruger, 1996; Bennett & Xie, 1988) was produced by a cutaneous incision and a blunt dissection through the biceps femoris to expose the sciatic nerve. A PE 90 Polyethylene tubing (Intramedic, Clay Adams; Becton Dickinson Co.) cuff (2 mm length) was placed around the sciatic nerve at the level of the mid-thigh. The wound was closed in layers using 4-0 silk suture and wound clips. Testing was conducted 6-10 days after surgery.
Animals were placed in elevated wire cages and allowed 45-60 minutes to acclimate to the testing room. Baseline tactile sensitivity was assessed using a series of calibrated von Frey monofilaments (Stoelting; Wood Dale, Ill.) 0-3 days before surgery. Von Frey monofilaments were applied to the mid-plantar hind paw in sequential ascending or descending order, as necessary, to hover as closely as possible to the threshold of responses. The threshold was indicated by the lowest force that evoked a brisk withdrawal response to the stimuli. Thus, a withdrawal response led to the presentation of the next lighter stimulus and the lack of a withdrawal response led to the presentation of the next stronger stimulus. Rats with baseline thresholds <10 g force were excluded from the study. […] Under cumulative dosing conditions, compounds were administered IP every 30 minutes with the cumulative dose increasing in ½ log unit increments. Tactile hypersensitivity was assessed 20-30 minutes following each drug administration.
Test Method 2 Data Analysis—The 50% threshold values (in gm force) estimated by the Dixon non-parametric test (Chaplan et al, 1994) was calculated and fifteen-grams of force was used as the maximal force. Dose-effect curves were generated for each experimental condition for each rat. Individual tactile hypersensitivity threshold values were averaged to provide a mean (±1 SEM). Reversal of tactile hypersensitivity was defined as a return to baseline tactile sensitivity and was calculated according to the following equation:
(§4) [formula] in which 50%^drug+CCl is the 50% value after compound in animals approximately one week after CCl surgery, 50%^CCl is the 50% value approximately one week after CCl surgery alone, and 50%^baseline is the 50% value before CCl surgery. Maximal effect of 100% reversal represents a return to the mean pre-operative threshold value for subjects in that experimental condition. Test Method 3: Scheduled-Controlled Responding.

[5] = test system: Spraque-Dawley rats; assay: Scheduled-controlled responding (operant responding, food presentation)
From the text: as §4
Rats were trained under a multiple-cycle procedure during experimental sessions conducted five days each week. Each training cycle consisted of a 1-min pretreatment period followed by a 10-min response period. During the pretreatment period, stimulus lights were not illuminated, and responding had no scheduled consequences. During the response period, the left or right stimulus lights were illuminated (counterbalanced among subjects), the response lever was extended and subjects could respond under a fixed ratio 30 schedule of food presentation. Training sessions consisted of 3 consecutive cycles. Testing sessions were identical to training sessions except that a single dose of drug was administered at the start of the first cycle.
Data analysis. Operant response rates from individual animals were averaged for the three cycles during test sessions and were converted to percent of control response rates using the average rate from the previous training day as the control value (i.e., average of three cycles). Data are presented as the mean (±1 SEM) response rate as a percent of control.

[6] = test system: cingulate and retrosplenial cortices of mice and rats; assay: Induction of vacuoles (vacuolization) versus behaviorally effective doses; conditions: in vivo
[7] = test system: rats trained to discriminate between saline and PCP; assay: PCP-like discriminative stimulus effects (substitution for PCP); assay type: in vivo
[8] = PCP-like effects relative to doses effective in an ischemia model; conditions: in vivo
[9] = test system: Spraque-Dawley rats; assay: Observable signs of sedation and ataxia

## O=c1c2c(c1=O)N(CCP(=O)(O)O)CCCN2 [Compound A, [2-(8,9-Dioxo-2,6-diazabicyclo[5.2.0]non-1(7)-en-2-yl)ethyl]phosphonic acid]
[1]; IP, 1 mg/kg
  % MPE (reversal of PGE2-induced thermal hypersensitivity): −7%
[1]; IP, 3 mg/kg
  % MPE (reversal of PGE2-induced thermal hypersensitivity): 66%
[1]; IP, 10 mg/kg, 10 mg/kg
  % MPE (reversal of PGE2-induced thermal hypersensitivity): 79%
[1]; PO, 10 mg/kg
  % MPE (reversal of PGE2-induced thermal hypersensitivity): 5%
[1]; PO, 30 mg/kg
  % MPE (reversal of PGE2-induced thermal hypersensitivity): 23%
[1]; PO, 100 mg/kg, 100 mg/kg
  % MPE (reversal of PGE2-induced thermal hypersensitivity): 87%
[2]
  Change from Baseline (T10): −0.3
[3]; 10.0 mg/kg IP with PGE2, PGE2 + vehicle −5.6
  Change from Baseline (T10): −1.5
[3]; 10 mg/kg IP with PGE2, PGE2 alone 44.8±0.1, vehicle 50.3±0.4
  T10 (temperature producing half-maximal tail-withdrawal latency): 48.8±0.2
[4]; cumulative dose 1 mg/kg
  % Reversal of CCl-induced tactile hypersensitivity: 13%
[4]; cumulative dose 3 mg/kg
  % Reversal of CCl-induced tactile hypersensitivity: 45%
[4]; cumulative dose 10 mg/kg, 10 mg/kg
  % Reversal of CCl-induced tactile hypersensitivity: 97%
[5]; IP, 3 mg/kg
  Operant responding: response rate as a percent of control: 111%
[5]; IP, 10 mg/kg
  Operant responding: response rate as a percent of control: 86%
[5]; PO, 10 mg/kg
  Operant responding: response rate as a percent of control: 112%
[5]; PO, 30 mg/kg
  Operant responding: response rate as a percent of control: 97%
[5]; PO, 100 mg/kg
  Operant responding: response rate as a percent of control: 100%
[5]; schedule of food presentation, Compound A IP or PO at doses that reversed hypersensitivity
  rates of responding (in words): did not significantly modify rates of responding
[6]
  effectiveness/vacuolization ratio: ≤ 16
[7]
  substitution for PCP: did not substitute for PCP
[8]
  devoid of many PCP-like effects up to doses times higher than those effective in an ischemia model: 4-10
[9]; at doses needed to relieve pain in preclinical models
  ataxia or sedation: did not produce ataxia or sedation
[9]; doses effective in PGE2 test (as high as 178 mg/kg)
  sedation or ataxia: not associated with sedation or ataxia
[9]; doses used in the CCl-induced tactile hypersensitivity study, IP
  sedation or ataxia: not associated with sedation or ataxia
